# How the values were obtained:
# [1] = Trypan blue viability of human RPE cells (ARPE-19) exposed to hydrogen peroxide; type: cell-based; conditions: human, ARPE-19 cells (human RPE cells); 100 μM H2O2 alone, 8 hours; read-out: Reduction of cell viability
# Experimental: Purpose: Investigate cytoprotective properties of risuteganib in human RPE cells (ARPE-19) exposed to hydrogen peroxide, which is a reactive oxygen species that can induce cell death at elevated levels. Methods: ARPE-19 cells were cultured in laminin-coated trans-wells for 2 weeks to induce differentiation. Cells were then exposed to the experimental conditions: […]
# primary human RPE cells [2] = assay: ROS level (CM-H2DCFDA) in primary human RPE cells exposed to hydroquinone; type: cell-based; conditions: HQ 125-180 uM, 3-4 hours
# Experimental: (§1) Purpose: To determine if risuteganib protects against hydroquinone (HQ)-mediated cell injury, elevated ROS level and reduced mitochondrial membrane potential (Δψm) in cultured human RPE cells. Elevated ROS levels increase oxidative stress in the cells, leading to reduced cell health and cell death. Loss of ΔΨm is a marker for early cell death. Methods: Primary human RPE cells were seeded on collagen-coated 96-well plates in triplicates at 8K, 10K and […] cells/well, respectively. Cells reached 80% to 100% confluence 24 hours after plating, and confluent cells were then grown for an additional 4 or 5 days until growth was density arrested. On day 6 after plating, cells in the plate upper half were loaded with 20 μM CM-H2DCFDA (measures ROS level) and in the plate lower half with 10 μM JC-1 (measures Δψm) for 30 minutes at 37° C. […] For the ROS and Δψm assays, a fluorescence plate reader was used to quantify ROS production (490-nm excitation, 522-nm emission), and green monomer of JC-1 (490-nm excitation, 522-nm emission) and red JC-1 aggregate (535-nm excitation, 590-nm emission), respectively. […] The WST reagent was quantified with a plate reader at 440 nm and a reference wavelength at 690 nm. Data were normalized to untreated control as 100% and were expressed as the mean±SD.
# primary human RPE cells [3] = assay: Mitochondrial membrane potential (JC-1) in primary human RPE cells exposed to hydroquinone; type: cell-based; conditions: HQ 125-180 uM, 3-4 hours
# Experimental: as §1
# primary human RPE cells [4] = assay: WST-1 cell viability of primary human RPE cells exposed to hydroquinone; type: cell-based; conditions: HQ 125-180 uM, 4 hours or 5 hours
# Experimental: as §1
# [5] = Trypan blue viability of primary mouse Müller cells exposed to kainic acid; type: cell-based, CD1 mice; conditions: CD1, mouse; 500 μM kainic acid alone, 48 hours; read-out: Reduction of Muller cell viability
# Excerpt: Purpose: Investigate neuroprotective properties of risuteganib in primary mouse Müller cells exposed to kainic acid, a neuroexcitatory compound that activates glutamate receptors, resulting in overstimulation and cell death. Retinal Müller cells support normal functions of neurons and their dysregulation can leads to loss of homeostasis and neuronal cell death.
# Methods: Fresh retina were collected from CD1 mice and then mechanically dissociated with sterile Pasteur pipette into small aggregates and seeded into 35 mm culture dishes. All cultures were first left unchanged for 5-6 days and then replenished every 3-4 days. When the cell growth had reached around 80% confluency, retinal aggregates and debris were removed by media washes to form a purified cell monolayer. Cells were then exposed to the experimental conditions: (1) untreated control, (2) 1.0 mg/mL risuteganib, (3) 500 μM kainic acid (KA), and (4) 1.0 mg/mL risuteganib for 24 hours before 500 μM kainic acid exposure. 48 hours after kainic acid treatment, dead and live cell numbers were measured using Trypan blue exclusion assay on a hemocytometer.
# [6] = Trypan blue viability of primary mouse retinal neuron cells exposed to kainic acid; type: cell-based, CD1 mice; conditions: CD1, mouse; 500 μM kainic acid alone, 8 hours; read-out: Reduction of cell viability
# Experimental: Purpose: Investigate neuroprotective properties of risuteganib in primary mouse retinal neuron cells exposed to kainic acid, a neuroexcitatory compound that activates glutamate receptors, resulting in overstimulation and cell death.
# Methods: Fresh retina were collected from CD1 mice and then mechanically dissociated with sterile Pasteur pipette. Cell suspensions were then dispensed into petri dish and incubated for 6 hours. Cells were then exposed to the experimental conditions: (1) untreated control, (2) 1.0 mg/mL risuteganib, (3) 500 μM kainic acid (KA), and (4) 1.0 mg/mL risuteganib for 24 hours before 500 μM kainic acid exposure. 8 hours after kainic acid treatment, dead and live cell numbers were measured using Trypan blue exclusion assay on a hemocytometer.
# [7] = test system: neovascularization in mice (CNV); conditions: reproduced from US 2019/0062371; cited from earlier work
# [8] = test system: human retinal Müller cells (MIO-M1); assay: MTT cell viability of human Müller cells (MIO-M1); type: cell-based; conditions: 1× concentration (clinical dose), 24 hours, vs untreated (FIG. 18)
# Experimental: Purpose: To determine the effects of risuteganib and anti-VEGF drugs on the cell viability of cultured human retinal Müller cells (MIO-M1).
# Methods: The immortalized human retinal Müller cell line (MIO-M1) was obtained from the Department of Cell Biology of the University College, London. Cells were cultured in Dulbecco's Modified Eagle's Medium (DMEM) and plated in 96-well plates for 24 hours before treatment with 0.5×, 1× or 2× concentrations of 1 mg/50 μL risuteganib, or 1× of ranibizumab, bevacizumab or aflibercept. Dosage was based on clinical dose of each compound. The experiments were repeated 3 times with 7-8 replicates each. After 24 hours of drug treatment, MTT NAD(P)H-dependent colorimetric assay was used to assess the number of viable cells present in the cultures. Absorbance ratios were normalized to untreated control as 100%. Statistical analysis was performed in GraphPad Prism software program.
# [9] = test system: human retinal Müller cells (MIO-M1); assay: Reactive oxygen species level in human Müller cells (MIO-M1); type: cell-based; conditions: 1× concentration (clinical dose), 24 hours
# Experimental: Purpose: To determine the effects of risuteganib and anti-VEGF drugs on reactive oxygen species (ROS) levels in cultured human retinal Müller cells (MIO-M1). Elevated ROS levels can disrupt normal cellular functions, leading to reduced cell health and possible cell death.
# Methods: The immortalized human retinal Müller cell line (MIO-M1) was obtained from the Department of Cell Biology of the University College, London. Cells were cultured in Dulbecco's Modified Eagle's Medium (DMEM) and plated in 24-well plates for 24 hours before treatment with 1× concentration of 1 mg/50 μL ALG-1001, ranibizumab, bevacizumab, or aflibercept. Dosage was based on clinical dose of each compound. The experiments were repeated 3 times with 6 replicates each. After 24 hours drug treatment, ROS level was measured using the fluorescent dye 2′,7′-dichlorodihydrofluorescein diacetate. The signals were read using the Biotek Synergy HT plate reader with EX filter in 482 nm and EM filter in 520 nm. Results were normalized to untreated control as 100%. Statistical analysis was performed in GraphPad Prism software program.
# [10] = test system: human retinal Müller cells (MIO-M1); assay: Mitochondrial membrane potential (JC-1) in human Müller cells (MIO-M1); type: cell-based; conditions: 1× concentration (clinical dose), 24 hours, vs untreated control
# Experimental: Purpose: To determine the effects of risuteganib on the mitochondrial membrane potential (ΔΨm) in cultured human retinal Müller cells (MIO-M1). Loss of ΔΨm is a marker for early cell death.
# Methods: The immortalized human retinal Müller cell line (MIO-M1) was obtained from the Department of Cell Biology of the University College, London. Cells were cultured in Dulbecco's Modified Eagle's Medium (DMEM) and plated in 24-well plates for 24 hours before treatment with 1× concentration of 1 mg/50 μL risuteganib, ranibizumab, bevacizumab, or aflibercept. Dosage was based on clinical dose of each compound. The experiments were repeated 3 times with 6 replicates each. After 24 hours drug treatment, the ΔΨm was measured using the JC-1 kit, a cationic dye that fluoresces red within the mitochondria of healthy, live cells. In the stressed or apoptotic cells, the mitochondrial membrane potential collapses and the cationic dye fluoresces green. First, cells were rinsed with fresh media and then incubated with the JC-1 reagent for 15 minutes at 37 degrees C. The dyes were then removed, and phosphate buffered saline was added to each well. The Red fluorescence (live cells) was read at EX 550 nm and EM 600 nm. The Green fluorescence (apoptotic cells) was read at EX 483 nm and EM 535 nm. The changes in ΔΨm were calculated by the ratio of red to green fluorescence. […]
molecule,measurement,setting,value
"OO [H2O2, hydrogen peroxide, reference compound]","cytotoxicity at 8 h, 100 μM",[1],22%
"Oc1ccc(O)cc1 [HQ, hydroquinone, reference compound]",Increase in ROS levels compared to untreated cells,primary human RPE cells [2],78%
same,Change in Δψm compared to untreated cells,primary human RPE cells [3],−53%
same,Change in cell viability compared to untreated cells,primary human RPE cells [4],−82%
"C=C(C)[C@H]1CN[C@H](C(=O)O)[C@H]1CC(=O)O [kainic acid, reference compound]","cytotoxicity at 48 h, 500 μM",[5],32%
same,"cytotoxicity at 8 h, 500 μM",[6],42%
R - G - Cys(acid)•TFA [Test Compound 1],Activity At Dose Tested,[7],Active
same,Mean % Reduction of Retinal Neovascularization In ROP Model,[7],49 - FIG. 11%
R- G - Cys(acid)•Acetate [Test Compound 2],Activity At Dose Tested,[7],Active
same,Mean % Reduction of Retinal Neovascularization In ROP Model,[7],56 - FIG. 11%
aflibercept [reference compound],"Cell viability (MTT), in words",[8],decreased cell viability
same,Change in ROS level compared to untreated control,[9],29%
same,"Mitochondrial membrane potential (ΔΨm), in words",[10],decreased ΔΨm
bevacizumab [reference compound],"Cell viability (MTT), in words",[8],decreased cell viability
same,Change in ROS level compared to untreated control,[9],24%
"ranibizumab (antibody, chains of the INN, looked up, V domains shown, anti-VEGF agent) VH: EVQLVESGGGLVQPGGSLRLSCAASGYDFTHYGMNWVRQAPGKGLEWVGWINTYTGEPTYAADFKRRFTFSLDTSKSTAYLQMNSLRAEDTAVYYCAKYPYYYGTSHWYFDVWGQGTLVTVSS VL: DIQLTQSPSSLSASVGDRVTITCSASQDISNYLNWYQQKPGKAPKVLIYFTSSLHSGVPSRFSGSGSGTDFTLTISSLQPEDFATYYCQQYSTVPWTFGQGTKVEIK","Cell viability (MTT), in words",[8],decreased cell viability
same,Change in ROS level compared to untreated control,[9],37%
